This assay deals with sebaceous glands of Syrian hamster ears. Put plainly: Syrian hamster ear model of sebum secretion, HPLC of cholesterol ester and wax ester. Format: in vivo. The settings on record: topical 1 w/v %, 4 weeks; for % Reduction in CE, change vs. relevant vehicle control: cholesterol ester; for % Reduction in CE, change vs. relevant vehicle control / % Reduction in WE, change vs. relevant vehicle control: twice daily, five days a week, right ear, negative = increase; for Sum CE + WE, change vs. relevant vehicle control: summation of % reduction in CE and in WE; for effect on CE and WE (sebum) secretion, in words: compared to the control; for % Reduction in WE, change vs. relevant vehicle control: wax ester. The method, then:
Luderschmidt et al describes an animal model for testing whether compounds are capable of modulating sebum secretion. Arch. Derm. Res. 258, 185-191 (1977). This model uses Syrian hamsters, whose ears contain sebaceous glands. Compounds can be administered to these animals to determine if a test agent is capable of modulating sebum production
Testing for sebum inhibition was carried out in the following manner. Male Syrian hamsters aged 9 to 10 weeks were introduced into the laboratory environment and acclimated for 2 weeks prior to use in the study. Each group consisted of 5 animals and were run in parallel with vehicle and positive controls. Prior to administration, 10 mg of each compound was dissolved in 1 mL of Universal solvent (ethanol/propylene glycol (70/30% v/v) to achieve a final concentration of 1 w/v %.
Animals were dosed topically twice daily, five days a week, for 4 weeks. Each dose consisted of 25 micro liters of vehicle control or drug. The dose was applied to the ventral surfaces of both the right and left ears. All animals were sacrificed approximately 18-24 hours after the final dose. The right ears were collected from each animal and used for sebum analysis.
The ears were prepped for HPLC analysis in the following manner. One 8 mm distal biopsy punch was taken, just above the anatomical “V” mark in the ear to normalize the sample area. The punch was pulled apart. The ventral biopsy surface (the area where the topical dose was directly applied to the sebaceous glands) was retained for testing and the dorsal surface of the biopsy punch was discarded.
Tissue samples were blown with N2 gas and stored at −80° C. under nitrogen until HPLC analysis. In addition to ear samples, an aliquot of each drug and vehicle (at least 250 ul) was also stored at −80° C. for inclusion in the HPLC analysis.
HPLC analysis was carried out on an extract of the tissue sample. Tissue samples were contacted with 3 ml of solvent (a 4:1 admixture of 2,2,4-trimethylpentane and isopropyl alcohol). The mixture was shaken for 15 minutes and stored overnight at room temperature, protected from light. The next morning 1 milliliter of water was added to the sample and shaken for 15 minutes. The sample was then centrifuged at approximately 1500 rpm for 15 minutes. Two ml of the organic phase (top layer) was transferred to a glass vial, dried at 37° C., under nitrogen, for approximately 1 hour, and then lyophilized for approximately 48 hours. The samples were then removed from the lyophilizer and each vial was reconstituted with 600 μl of solvent A (trimethylpentane/tetrahydrofuran (99:1). The samples were then recapped and vortexed for 5 minutes.
200 μl of each sample was then transferred to a pre-labeled 200 μl HPLC vial with 200 μL glass inserts. The HPLC vials were placed in the autosampler tray for the Agilent 1100 series HPLC unit. The Agilent 1100 HPLC system consisted of a thermostated autosampler, a quarternary pump, a column heater, and an A/D interface module. All components were controlled by Agilent ChemStation software. A Waters Spherisorb S3W 4.6×100 mm analytical column was maintained at 30° C. by the Agilent column heater unit. The HPLC autosampler was programmed to maintain the sample temperature at 20° C. throughout the run.
10 uL of each sample was injected in triplicate into the column. Two solvents were used for the solvent gradient. Solvent A was an admixture of trimethylpentane and tetrahydrofuran (99:1). Solvent B was ethylacetate. The gradient utilized is described in the table below: […]
The Sedex 75 Evaporative Light Scattering Detector (ELSD) was operated at 45° C. with a gain of 5, and N2 pressure maintained at 3.1 bar. Analog signal obtained by the instrument was sent to the Agilent A/D interface module where it was converted to a digital output. The conversion was based on a 10000 mAU/volt set point and the data rate was set at 10 Hz (0.03 min). […]

Consider `COc1ccc(CN(C(=O)CC(=O)Nc2c(C(C)C)cccc2C(C)C)c2ccccn2)cc1` [Compound 3], for which the “% Reduction in CE, change vs. relevant vehicle control” value was 51%; the “Sum CE + WE, change vs. relevant vehicle control” value came out at 84%; the “effect on CE and WE (sebum) secretion, in words” value is listed as “comparable results”; the “% Reduction in WE, change vs. relevant vehicle control” value was 33%.
Take `CC(C)c1cccc(C(C)C)c1NC(=O)NCCc1c[nH]c2ccccc12` [Compound 31]: the “% Reduction in CE, change vs. relevant vehicle control” value came to 9%; the “Sum CE + WE, change vs. relevant vehicle control” value is 18%; the “% Reduction in WE, change vs. relevant vehicle control” value came out at 9%.
Turning to `CC(C)c1cccc(C(C)C)c1NC(=O)NCC1(c2ccco2)CCC1` [Compound 20], the “% Reduction in CE, change vs. relevant vehicle control” value is on record as 4%; the “Sum CE + WE, change vs. relevant vehicle control” value came to 3%; the “% Reduction in WE, change vs. relevant vehicle control” value is −1%.
For `CC(C)c1cccc(C(C)C)c1NC(=O)Nc1nnn(CCCCCCCCCCCO)n1` [Compound 26], in that order: 28%, 37% and 9%.
Turning to `CCCCCCCC1CCC(C(=O)Nc2c(C(C)C)cccc2C(C)C)C(=O)O1` (centres unmarked) [Compound 15], the “% Reduction in CE, change vs. relevant vehicle control” value amounted to 24%; the “Sum CE + WE, change vs. relevant vehicle control” value stood at 38%; the “% Reduction in WE, change vs. relevant vehicle control” value was 14%.
Taken in the same sequence, the figures for `CCCCCCCN(CCCCCSc1nc(-c2ccccc2)c(-c2ccccc2)[nH]1)C(=O)Nc1ccc(F)cc1F` [Compound 22] were 20%, 24% and 4%.
Taken in the same sequence, the figures for `CCCCCCCCCCCCn1nnc(CNC(=O)Nc2c(C(C)C)cccc2C(C)C)n1` [Compound 19] were −6%, −5% and 1%.
For `COc1ccc(CN(C(=O)CC(=O)Nc2c(C(C)C)cccc2C(C)C)c2ncccn2)cc1` [Compound 5], in that order: 32%, 28% and −4%.
For the compound `CC(C)c1cccc(C(C)C)c1NC(=O)NCC1(c2ccc(CO)cc2)CCCC1` [Compound 16], the “% Reduction in CE, change vs. relevant vehicle control” value is −1%; the “Sum CE + WE, change vs. relevant vehicle control” value is −1%; the “% Reduction in WE, change vs. relevant vehicle control” value was 0%.
Consider `CC(C)c1cccc(C(C)C)c1NC(=O)NCC1(c2cccc(CN(CCO)CCO)c2)CCCC1` [Compound 23], for which the “% Reduction in CE, change vs. relevant vehicle control” value was found to be 4%; the “Sum CE + WE, change vs. relevant vehicle control” value is given as −80%; the “% Reduction in WE, change vs. relevant vehicle control” value was −84%.
Taken in the same sequence, the figures for `CCCCCCCCCCCCCC(=O)CC(=O)Nc1c(C(C)C)cccc1C(C)C` [Compound 14] were −8%, −23% and −15%.
For `CC(C)c1cccc(C(C)C)c1NC(=O)CC(=O)N(c1ccccc1)C(C)C` [Compound 8], in that order: −27%, −97% and −70%.
Taken in the same sequence, the figures for `CCOC(=O)CN(C(=O)CC(=O)Nc1c(C(C)C)cccc1C(C)C)c1ccccc1` [Compound 7] were −67%, −151% and −84%.
`CCCCCCCCCCCCOP(=O)(CC(=O)Nc1c(C(C)C)cccc1C(C)C)c1ccccc1` (centres unmarked) [Compound 12]: the “% Reduction in CE, change vs. relevant vehicle control” value is 48%; the “Sum CE + WE, change vs. relevant vehicle control” value amounted to 92%; the “% Reduction in WE, change vs. relevant vehicle control” value amounted to 44%.
For `COc1cccc2c1CCC(NC(=O)Nc1c(C(C)C)cccc1C(C)C)C2` (centres unmarked) [Compound 30], in that order: −10%, −44% and −34%.
For `CC(C)c1cccc(C(C)C)c1NC(=O)NCC1(c2ccccn2)CCCC1` [Compound 17], in that order: −56%, −120% and −64%.
Taken in the same sequence, the figures for `CCCCCCCCCCCCn1nnc(C(C(=O)Nc2c(OC)cc(OC)cc2OC)c2ccccc2)n1` (centres unmarked) [Compound 11] were −5%, −11% and −6%.
`CC(C)c1cccc(C(C)C)c1NC(=O)NCC1(c2cccc(CN3CCOCC3)c2)CCCC1` [Compound 24]: the “% Reduction in CE, change vs. relevant vehicle control” value is on record as 20%; the “Sum CE + WE, change vs. relevant vehicle control” value worked out at 21%; the “% Reduction in WE, change vs. relevant vehicle control” value came to 1%.
For `COc1ccccc1CN[C@@H](CNC(=O)Nc1c(C(C)C)cccc1C(C)C)c1ccccc1` [Compound 21], in that order: 4%, 7% and 3%.
For `CCCCCCCCCCCCn1nnc(C(C(=O)Nc2c(C(C)C)cccc2C(C)C)c2ccccc2)n1` (centres unmarked) [Compound 10], in that order: −105%, −252% and −147%.
Taken in the same sequence, the figures for `CC(C)c1cccc(C(C)C)c1NC(=O)NCC1(c2ccccc2)CCOCC1` [Compound 13] were −7%, −14% and −7%.
`CSc1ccc(CN(C(=O)CC(=O)Nc2c(C(C)C)cccc2C(C)C)C(C)C)cc1` [Compound 2]: the “% Reduction in CE, change vs. relevant vehicle control” value came out at 65%; the “Sum CE + WE, change vs. relevant vehicle control” value is recorded as 96%; the “effect on CE and WE (sebum) secretion, in words” value was “comparable results”; the “% Reduction in WE, change vs. relevant vehicle control” value was 31%.
Consider `CC(C)c1cccc(C(C)C)c1NC(=O)NCC(C)c1ccccc1` (centres unmarked) [Compound 27], for which the “% Reduction in CE, change vs. relevant vehicle control” value is −17%; the “Sum CE + WE, change vs. relevant vehicle control” value is −40%; the “% Reduction in WE, change vs. relevant vehicle control” value is on record as −23%.
Taken in the same sequence, the figures for `CC(C)c1cccc(C(C)C)c1NC(=O)CC(=O)N(CCN(C)C)Cc1ccccc1` [Compound 4] were −1%, −19% and −18%.
Take `CCCCCCCCCCCCn1nnc(CC(=O)Nc2c(C)nn(C)c2C)n1` [Compound 18]: the “% Reduction in CE, change vs. relevant vehicle control” value was −23%; the “Sum CE + WE, change vs. relevant vehicle control” value was −72%; the “% Reduction in WE, change vs. relevant vehicle control” value is −49%.
In the case of `CC(C)c1cccc(C(C)C)c1NC(=O)CC(=O)CC(c1ccccc1)c1ccccc1` [Compound 9], the “% Reduction in CE, change vs. relevant vehicle control” value stood at 7%; the “Sum CE + WE, change vs. relevant vehicle control” value worked out at 9%; the “% Reduction in WE, change vs. relevant vehicle control” value was found to be 2%.
For `COc1cc(OC)cc(C(NCC(=O)Nc2c(C(C)C)cccc2C(C)C)c2ccccc2)c1` (centres unmarked) [Compound 25], in that order: 10%, 7% and −3%.

For the origin of these results see patent publication US8409595B2, “Method for decreasing sebum production” (Medicis Pharmaceutical Corporation, priority 2003, dated 2013).
